Results from patent US8586505B2 (SDS Biotech K. K., priority 2009, dated 2013).

Assays:
Phytophthora infestans = test: whole plant or invertebrate; format: in vivo; conditions: in Solanum lycopersicum, 96 h, read-out: Determination of control effect (preventive value)
[1] = system: Pseudoperonospora cubensis; test: Test of examining control effect on Pseudoperonospora cubensis (potted cucumber plants); format: in vivo; conditions: 96 h, 10% wettable powder adjusted to 125 ppm, 15 ml/pot sprayed on potted cucumber plants one day before spray inoculation, assessed after 1 day wet chamber and 3 days greenhouse, read-out: Determination of control effect (preventive value) on Pseudoperonospora cubensis
How it was run: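 Preventive treatment: 125 ppm sample agent solution (from 10% wettable powder) sprayed at 15 ml/pot on 2.5-leaf Sagamihanjiro cucumbers, then P. cubensis inoculated next day at 1.0×10^4 cells/ml. Incubation was 1 day wet at 21° C plus 3 days greenhouse. Lesion area rate compared with untreated gives preventive value (≥60% high).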

Sphaerotheca fuliginea = test: Test of examining control effect on Sphaerotheca fuliginea (potted cucumber plants); format: in vivo; conditions: Podosphaera fuliginea, 336 h; 10% wettable powder adjusted to 125 ppm, 15 ml/pot sprayed on potted cucumber plants one day before spray inoculation; assessed after 14 days in greenhouse; read-out: Determination of control effect (preventive value) on Sphaerotheca fuliginea
How it was run: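 Control effect rated high at preventive value 60–100% and low below 60%, from lesion area relative to untreated plants 14 days after spray inoculation with S. fuliginea (1.0×10^5 cells/ml). Compound applied at 125 ppm as wettable-powder spray one day before inoculation, on 2nd-leaf-stage Sagamihanjiro cucumber.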

Tetranychus urticae eggs = test: Test of examining effect on Tetranychus urticae eggs (ovicidal rate); format: in vivo; conditions: 144 h, 0.4 ml sprayed, unhatched eggs counted six days later, read-out: Determination (ovicidal rate)
Experimental: Thereafter, the released female adults were removed. […] Six days later, the number of unhatched eggs was counted, and an ovicidal rate was calculated.

| SMILES | pest or weed control at 125 ppm (Phytophthora infestans) [%] | pest or weed control at 125 µg/mL [1] [%] | pest or weed control at 125 µg/mL (Sphaerotheca fuliginea) [%] | pest or weed control at 250 ppm (Tetranychus urticae eggs) [%] | melting point [°C] |
| --- | --- | --- | --- | --- | --- |
| Cc1cc(F)ccc1C#CCC(C)Nc1ncnc2sccc12 (stereo not drawn) [compound 246] | 60 to 100 | 60 to 100 | 60 to 100 | 80 to 95 | – |
| C=C(C#CCCNc1ncnc2ccccc12)c1ccccc1 [compound 95] | 0 to 60 | 60 to 100 | 0 to 60 | 60 to 80 | – |
| CCc1ccc(C#CCC(C)Nc2ncnc3sccc23)cc1 (stereo not drawn) [compound 240] | 60 to 100 | 60 to 100 | – | 60 to 80 | – |
| CC(CC#Cc1c(Cl)cc(C(F)(F)F)cc1Cl)Nc1ncnc2sccc12 (stereo not drawn) [compound 262] | – | 60 to 100 | 60 to 100 | ≥ 95 | – |
| Clc1ncccc1C#CCCNc1ncnc2ccccc12 [compound 195] | 60 to 100 | 60 to 100 | 60 to 100 | – | 168 to 170 |
| FC(F)(F)c1cccc(C#CCCNc2ncnc3sccc23)c1 [compound 26] | 0 to 60 | 60 to 100 | 60 to 100 | – | 123 to 125 |
| FC(F)(F)c1ccc(Oc2nc(C#CCCNc3ncnc4ccccc34)cs2)cc1 [compound 220] | 0 to 60 | 0 to 60 | 60 to 100 | – | 137 to 139 |
| C(#Cc1ccccc1)CCNc1ncnc2ccccc12 [compound 96] | 60 to 100 | 60 to 100 | 60 to 100 | – | 120 to 122 |
| C(#Cc1csc(-c2ccccc2)n1)CCNc1ncnc2sccc12 [compound 76, 4-[4-(2-Phenylthiazol-4-yl)-3-butynylamino]thieno[2,3-d]pyrimidine] | 0 to 60 | 60 to 100 | 60 to 100 | – | 134 to 136 |
| Fc1ccc(C#CCCNc2ncnc3ccccc23)cc1F [compound 166] | 60 to 100 | 60 to 100 | 60 to 100 | – | 161 to 162 |
| C(#Cc1cscn1)CCNc1ncnc2sccc12 [compound 63] | 60 to 100 | 60 to 100 | 60 to 100 | – | 174 |
| COc1cccc(Oc2nc(C#CCCNc3ncnc4ccccc34)cs2)c1 [compound 216] | 60 to 100 | 60 to 100 | 60 to 100 | – | 77 to 79 |
| CCOC(=O)c1cnc(C#CCCNc2ncnc3ccccc23)s1 [compound 213] | 0 to 60 | 60 to 100 | 60 to 100 | – | 113 to 114 |
| COCc1ccccc1C#CCCNc1ncnc2ccc(I)cc12 [compound 322] | 0 to 60 | 60 to 100 | 60 to 100 | – | 121 to 123 |
| C(#Cc1ccccc1)CCNc1ncnc2[nH]cnc12 [compound 378] | 0 to 60 | 0 to 60 | 0 to 60 | – | 207 to 208 |
| Clc1ncnc(NCCC#Cc2ccccc2)c1Cl [compound 357] | 60 to 100 | 60 to 100 | 0 to 60 | – | 122 to 123 |
| Cc1nc(C#CCCNc2ncnc3sccc23)cs1 [compound 66] | 0 to 60 | 60 to 100 | 0 to 60 | – | 160 to 161 |

| SMILES | pest or weed control at 125 ppm (Phytophthora infestans) [%] | pest or weed control at 125 µg/mL [1] [%] | pest or weed control at 125 µg/mL (Sphaerotheca fuliginea) [%] | pest or weed control at 250 ppm (Tetranychus urticae eggs) [%] | melting point [°C] |
| --- | --- | --- | --- | --- | --- |
| OCc1ccc(C#CCCNc2ncnc3ccccc23)cn1 [compound 202] | 0 to 60 | 60 to 100 | 0 to 60 | – | 183 to 185 |
| Cc1cc(C)nc(C#CCCNc2ncnc3sccc23)n1 [compound 59] | 0 to 60 | 0 to 60 | 0 to 60 | – | 112 to 113 |
| O=[N+]([O-])c1ccccc1C#CCCNc1ncnc2sccc12 [compound 38] | 60 to 100 | 60 to 100 | – | 60 to 80 | – |
| C=C(C)CCc1ccccc1C#CCCNc1ncnc2ccccc12 [compound 105] | 60 to 100 | 60 to 100 | 60 to 100 | – | 92 to 94 |
| C=C(C#CCCNc1ncnc2ccccc12)CO [compound 92] | 60 to 100 | 60 to 100 | 0 to 60 | – | 139 |
| C(#Cc1ccc2ccccc2c1)CCNc1ncnc2ccccc12 [compound 183] | 60 to 100 | 60 to 100 | 60 to 100 | – | 159 to 160 |
| OCc1cnccc1C#CCCNc1ncnc2ccccc12 [compound 201] | 0 to 60 | 60 to 100 | 60 to 100 | – | 182 to 186 |
| COCc1cc(F)c(F)cc1C#CCCNc1ncnc2ccccc12 [compound 146] | 60 to 100 | 60 to 100 | 60 to 100 | – | 121 to 125 |
| C(#Cc1ccncc1)CCNc1ncnc2sccc12 [compound 57] | 0 to 60 | 0 to 60 | 0 to 60 | – | 140 to 141 |
| Cc1scnc1C#CCCNc1ncnc2sccc12 [compound 65] | 60 to 100 | 60 to 100 | 60 to 100 | – | 148 to 150 |
| Fc1cccc(Oc2nc(C#CCCNc3ncnc4ccccc34)cs2)c1 [compound 225] | 60 to 100 | 60 to 100 | 60 to 100 | – | 134 to 136 |
| Clc1cccc(C#CCCNc2ncnc3ccccc23)c1Cl [compound 171] | 60 to 100 | 60 to 100 | 60 to 100 | – | 175 to 176 |
| CC(C)(C)[Si](C)(C)C#CCCNc1ncnc2sccc12 [compound 5] | 0 to 60 | 60 to 100 | 60 to 100 | – | 190 to 192 |
| CC(CC#Cc1cscn1)Nc1ncnc2ccccc12 (stereo not drawn) [compound 291] | 0 to 60 | 60 to 100 | 60 to 100 | – | 142 to 145 |
| COCc1ccccc1C#CCCNc1ncnc2c(Cl)cc(Cl)cc12 [compound 338] | 0 to 60 | 60 to 100 | 0 to 60 | – | 161 to 162 |
| Clc1ccc(C#CCCNc2ncnc3ccccc23)c(Cl)c1 [compound 172] | 60 to 100 | 60 to 100 | 60 to 100 | – | 182 to 183 |
